Assay [1] has as its target T1, human peroxiredoxin-IV (hPrxIV) (Homo sapiens, UniProt Q13162).
T1 sequence (Q13162 38-271): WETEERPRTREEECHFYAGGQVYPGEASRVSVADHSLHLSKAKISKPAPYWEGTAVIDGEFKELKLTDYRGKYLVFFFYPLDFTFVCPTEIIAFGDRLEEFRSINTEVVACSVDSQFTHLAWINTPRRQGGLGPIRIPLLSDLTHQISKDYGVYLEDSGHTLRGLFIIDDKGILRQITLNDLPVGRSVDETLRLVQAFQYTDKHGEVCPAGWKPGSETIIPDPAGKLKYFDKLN
In words: H2O2 consumption assay. Format: biochemical.

Assay [2] deals with T2, human peroxiredoxin-II (hPrxII) (Homo sapiens, UniProt P32119).
T2 sequence (P32119 2-198): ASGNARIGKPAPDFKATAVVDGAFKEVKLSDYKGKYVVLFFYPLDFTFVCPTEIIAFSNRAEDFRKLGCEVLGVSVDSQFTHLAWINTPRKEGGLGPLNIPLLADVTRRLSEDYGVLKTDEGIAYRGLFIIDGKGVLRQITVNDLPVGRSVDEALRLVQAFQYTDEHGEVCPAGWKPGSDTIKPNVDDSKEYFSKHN
The experiment in a line: H2O2 consumption assay. Format: biochemical.

Assay [3] concerns the target AcePrx-1 (peroxiredoxin-1) (Ancylostoma ceylanicum, UniProt J7HJM3). In words: co-crystal structure. Format: biochemical.
Assay [4] deals with T3, AcePrx-1 (peroxiredoxin-1) (Ancylostoma ceylanicum, UniProt J7HJM3).
T3 sequence (J7HJM3 1-196): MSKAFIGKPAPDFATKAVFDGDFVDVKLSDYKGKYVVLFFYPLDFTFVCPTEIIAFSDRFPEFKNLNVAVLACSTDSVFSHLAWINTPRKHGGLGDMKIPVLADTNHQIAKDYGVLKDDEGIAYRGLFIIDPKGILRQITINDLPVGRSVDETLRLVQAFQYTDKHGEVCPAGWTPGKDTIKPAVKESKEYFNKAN
In words: LC-ESI-MS of covalent adduct on purified protein. The assay is classed as binding.

The target of assay [5] is AcePrx-1 containing a C-terminal histidine tag (Ancylostoma ceylanicum). The experiment in a line: SEC-MALS. Background: In gel filtration, larger molecules generally elute earlier.
Assay [6] deals with Peroxiredoxin-1 from Ancylostoma ceylanicum, wild type, N-terminal histidine tag (Ancylostoma ceylanicum). The experiment in a line: SEC-MALS.
For assay [7] the target is unchanged. In words: non-reducing SDS-PAGE.

pIC50: −log10 of the molar value.

For the molecule `[O-][n+]1c(CBr)c(CBr)[n+]([O-])c2ccccc21` [conoidin A, 2,3-bis(bromomethyl)quinoxaline-1,4-dioxide], the pIC50 in assay [1] was 3.58; in assay [2] it was 3.45; in assay [3], 3.43.

Turning to `Cc1c(CBr)[n+]([O-])c2ccccc2[n+]1[O-]` [conoidin B, 2-(bromomethyl)-3-methylquinoxaline-1,4-dioxide], the “LC-ESI-MS of covalent adduct on purified protein” value in assay [4] is given as “Conoidin B reacted to wild type AcePrx-1 to produce a 189-Da adduct in LC-ESI-MS”.

The molecule “AcePrx-1 containing a C-terminal histidine tag (enzyme)” gave a stoichiometry N in assay [5] of 10.

In the case of “Peroxiredoxin-1 from Ancylostoma ceylanicum, wild type, N-terminal histidine tag (enzyme)”, the stoichiometry N is 10 in assay [6] and 2 in assay [7].

In general, pIC50 refers to the negative decadic logarithm of the IC50, by convention in mol/L. For orientation: stoichiometry N means the number of molecules, sites or subunits per partner or assembly.

The record behind these values is PMC3755041 (Chemistry & biology, 2013).
